Experimental data reported in patent publication US8461328B2, “Tricyclic heterocyclic compounds, compositions and methods of use thereof” (Genentech, Inc., priority 2010, dated 2013).

Key:
Type in all cases: biochemical
JAK1 = target: T1, JAK1 (Homo sapiens, UniProt P23458); experiment: JAK1 inhibition (Table 4); details: read-out: JAK1 Ki
T1 construct: made in house; host or cells: SF9 insect cells (baculovirus)

JAK2 = target: T2, JAK2 (Homo sapiens, UniProt O60674); experiment: JAK2 inhibition (Table 4); details: read-out: JAK2 Ki
T2 construct: made in house; host or cells: SF9 insect cells (baculovirus)
T2 sequence (O60674 812-1132): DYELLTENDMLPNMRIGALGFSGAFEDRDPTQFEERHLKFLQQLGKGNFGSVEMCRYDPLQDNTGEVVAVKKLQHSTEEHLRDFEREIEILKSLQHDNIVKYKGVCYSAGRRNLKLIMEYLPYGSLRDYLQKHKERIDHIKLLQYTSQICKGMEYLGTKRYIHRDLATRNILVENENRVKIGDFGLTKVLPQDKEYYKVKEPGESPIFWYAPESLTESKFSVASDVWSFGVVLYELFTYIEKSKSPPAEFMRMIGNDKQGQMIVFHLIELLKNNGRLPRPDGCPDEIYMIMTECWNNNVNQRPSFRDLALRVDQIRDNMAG

JAK3 = target: T3, JAK3 (Homo sapiens, UniProt P52333); experiment: JAK3 inhibition (Table 4); details: read-out: JAK3 Ki
T3 construct: made in house; host or cells: SF9 insect cells (baculovirus)
T3 sequence (P52333 783-1124): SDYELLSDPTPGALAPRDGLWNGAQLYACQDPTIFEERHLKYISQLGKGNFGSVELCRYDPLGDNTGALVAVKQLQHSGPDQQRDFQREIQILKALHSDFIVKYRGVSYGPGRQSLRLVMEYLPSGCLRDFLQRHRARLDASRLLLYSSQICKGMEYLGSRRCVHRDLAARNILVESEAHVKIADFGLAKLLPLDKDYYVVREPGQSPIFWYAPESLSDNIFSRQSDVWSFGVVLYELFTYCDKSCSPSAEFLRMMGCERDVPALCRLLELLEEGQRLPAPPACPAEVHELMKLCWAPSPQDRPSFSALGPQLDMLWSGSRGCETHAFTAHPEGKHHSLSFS

TYK2 = target: T4, TYK2 (Homo sapiens, UniProt P29597); experiment: TYK2 inhibition (Table 4)
T4 construct: made in house; host or cells: SF9 insect cells (baculovirus)
T4 sequence (P29597 873-1187): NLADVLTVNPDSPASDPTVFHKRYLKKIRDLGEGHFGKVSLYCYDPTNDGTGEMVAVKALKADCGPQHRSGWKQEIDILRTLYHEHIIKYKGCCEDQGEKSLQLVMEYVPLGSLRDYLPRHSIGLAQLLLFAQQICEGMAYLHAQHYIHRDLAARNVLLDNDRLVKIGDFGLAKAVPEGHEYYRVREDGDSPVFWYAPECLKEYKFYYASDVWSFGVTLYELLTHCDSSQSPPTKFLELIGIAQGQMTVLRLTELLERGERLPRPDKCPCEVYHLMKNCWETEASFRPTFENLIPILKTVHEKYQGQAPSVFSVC

T1 sequence (P23458 852-1154): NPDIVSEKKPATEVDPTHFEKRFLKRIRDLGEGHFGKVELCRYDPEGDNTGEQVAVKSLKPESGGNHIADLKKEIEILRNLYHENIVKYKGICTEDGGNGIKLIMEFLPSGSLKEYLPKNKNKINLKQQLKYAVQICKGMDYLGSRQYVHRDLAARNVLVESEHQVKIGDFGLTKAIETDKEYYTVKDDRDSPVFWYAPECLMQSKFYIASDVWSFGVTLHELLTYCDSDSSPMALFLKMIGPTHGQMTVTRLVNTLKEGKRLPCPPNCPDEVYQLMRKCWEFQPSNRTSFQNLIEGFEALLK

Row | Compound | Ki (JAK1) [nM] | Ki (JAK2) [nM] | Ki (JAK3) [nM] | Ki (TYK2) [nM]
1 | CC(O)c1nc2cnc3[nH]ccc3c2n1C1CCCN(C(=O)C2CC2(F)F)C1 (stereo not shown) [Example 790, (2,2-Difluoro-cyclopropyl)-{3-[2-(1-hydroxy-ethyl)-6H-1,3,5,6-tetraaza-as-indacen-1-yl]-piperidin-1-yl}-methanone] | 79.9 | 740 | 884 | 587
2 | C[C@@H](O)c1nc2cnc3[nH]ccc3c2n1[C@@H]1CCC[C@@H](O)C1 [Example 689, (1R,3R)-3-[2-((R)-1-Hydroxy-ethyl)-6H-1,2,3,5,6-tetraaza-as-indacen-1-yl]-cyclohexanol] | 2.73 | 52.4 | 57 | 5.59
3 | CCc1nc2cnc3[nH]ccc3c2n1C1CCN(C(C)CC#N)CC1 (stereo not shown) [Example 123, 3-[4-(2-Ethyl-6H-1,2,3,5,6-tetraaza-as-indacen-1-yl)-piperidin-1-yl]-butyronitrile] | 3.55 | 7.14 | 23.6 | 31
4 | N#CCCN1CCC(n2c(CCNS(=O)(=O)C3CC3)nc3cnc4[nH]ccc4c32)CC1 [Example 370, Cyclopropanesulfonic acid (2-{1-[1-(2-cyano-ethyl)-piperidin-4-yl]-1,6-dihydro-1,3,5,6-tetraaza-as-indacen-2-yl}-ethyl)-amide] | 2.95 | 16.7 | 27.8 | 77.9
5 | O=C(Cc1nc2cnc3[nH]ccc3c2n1C1CCCOC1)N1CCCC1 (racemic) [Example 968, 1-Pyrrolidin-1-yl-2-[1-(tetrahydro-pyran-3-yl)-1,6-dihydro-1,3,5,6-tetraaza-as-indacen-2-yl]-ethanone] | 131 | 891 | 361 | 1170
6 | O=S(=O)(C1CCCC1)N1CCC(n2cnc3cnc4[nH]ccc4c32)CC1 [Example 443, 1-(1-Cyclopentanesulfonyl-piperidin-4-yl)-1,6-dihydro-1,3,5,6-tetraaza-as-indacene] | 8.11 | 13.9 | 419 | 47.2
7 | O=C(Cc1nc2cnc3[nH]ccc3c2n1C1CC2CCC1C2)N1CCC(O)CC1 (racemic) [Example 869, 2-(1-Bicyclo[2.2.1]hept-2-yl-1,6-dihydro-1,3,5,6-tetraaza-as-indacen-2-yl)-1-(4-hydroxy-piperidin-1-yl)-ethanone] | 0.89 | 17.9 | 8.69 | 10.1
8 | c1coc(CN2CCC[C@@H](n3cnc4cnc5[nH]ccc5c43)C2)n1 [Example 43, 1-((R)-1-Oxazol-2-ylmethyl-piperidin-3-yl)-1,6-dihydro-1,3,5,6-tetraaza-as-indacene] | 43.1 | 72.9 | 177 | 204
9 | N#CCCN1[C@@H]2CC[C@H]1C[C@H](n1cnc3cnc4[nH]ccc4c31)C2 [Example 98, 3-[(1S,3S,5R)-3-(6H-1,3,5,6-Tetraaza-as-indacen-1-yl)-8-aza-bicyclo[3.2.1]oct-8-yl]propionitrile] | 2.04 | 1.63 | 11.8 | 8.64
10 | c1cnc(N2CCC(n3cnc4cnc5[nH]ccc5c43)CC2)nc1 [Example 64, 1-(1-Pyrimidin-2-yl-piperidin-4-yl)-1,6-dihydro-1,3,5,6-tetraaza-as-indacene] | 36.4 | 51.4 | 243 | 495
11 | C[C@H](O)c1nc2cnc3[nH]ccc3c2n1C1CCCOC1 (single isomer, unassigned) [Example 461] | 354 | 1390 | 1180 | 1580
12 | Cc1nc2cnc3[nH]ccc3c2n1C1(C)CCN(S(=O)(=O)c2cccnc2)CC1 [Example 740, 2-Methyl-1-[4-methyl-1-(pyridine-3-sulfonyl)-piperidinyl-4-yl]-1,6-dihydro-1,3,5,6-tetraaza-as-indacene] | 21.7 | 97.7 | 404 | 296
13 | Cc1nc2cnc3[nH]ccc3c2n1C1CNCCOC1 (stereo not shown) [Example 910, 2-Methyl-1-[1,4]oxazepan-6-yl-1,6-dihydro-1,3,5,6-tetraaza-as-indacene] | 50.2 | 212 | 323 | 213
14 | N#Cc1ccccc1CN1CCC[C@@H](n2cnc3cnc4[nH]ccc4c32)C1 [Example 41, 2-[(R)-3-(6H-1,3,5,6-Tetraaza-as-indacen-1-yl)-piperidin-1-ylmethyl]benzonitrile] | 34.4 | 48.9 | 153 | 159
15 | CN1CCN(S(=O)(=O)NCCc2nc3cnc4[nH]ccc4c3n2C2CCCCC2)CC1 [Example 511, 4-Methyl-piperazine-1-sulfonic acid [2-(1-cyclohexyl-1,6-dihydro-1,3,5,6-tetraaza-as-indacen-2-yl)-ethyl]-amide] | 5.3 | 48.9 | 174 | 30.3
16 | Cc1nc2cnc3[nH]ccc3c2n1C1(C)CCN(C(=O)CC#N)CC1 [Example 741, 3-[4-Methyl-4-(2-methyl-6H-1,3,5,6-tetraaza-as-indacen-1-yl)-piperidin-1-yl]-3-oxo-propionitrile] | 103 | 528 | 1130 | 568
17 | N#CCCN1CCC(n2c(CNS(=O)(=O)C3CCCC3)nc3cnc4[nH]ccc4c32)CC1 [Example 499, Cyclopentanesulfonic acid {1-[1-(2-cyano-ethyl)-piperidin-4-yl]-1,6-dihydro-1,3,5,6-tetraaza-as-indacen-2-ylmethyl}-amide] | 13.8 | 85.6 | 103 | 417
18 | CC1CC(n2cnc3cnc4[nH]ccc4c32)CCN1 (racemic) [Example 229, 1-(2-Methyl-piperidin-4-yl)-1,6-dihydro-1,3,5,6-tetraaza-as-indacene] | 48.7 | 142 | 417 | 330
19 | CS(=O)(=O)CC(=O)N1CCC[C@@H](n2cnc3cnc4[nH]ccc4c32)C1 [Example 79, 2-Methanesulfonyl-1-[(R)-3-(6H-1,3,5,6-tetraaza-as-indacen-1-yl)-piperidin-1-yl]ethanone] | 15.7 | 22.3 | 77.1 | 167
20 | O=C(Cc1nc2cnc3[nH]ccc3c2n1C1CCN(Cc2ccccc2)CC1)N1CCC(F)(F)CC1 [Example 217, 2-[1-(1-Benzyl-piperidin-4-yl)-1,6-dihydro-1,3,5,6-tetraaza-as-indacen-2-yl)-1-(4,4-difluoro-piperidin-1-yl)-ethanone] | 3.6 | 48.7 | 6.79 | 608
21 | CN(CC(F)(F)F)C(=O)NC1CCC(n2cnc3cnc4[nH]ccc4c32)C1 (racemic) [Example 737, 1-Methyl-3-[3-(6H-1,3,5,6-tetraaza-as-indacen-1-yl)-cyclopentyl]-1-(2,2,2-trifluoro-ethyl)-urea] | 4.53 | 8.44 | 7.19 | 107
22 | N#CCCN1CCC(n2c(C3CCOCC3)nc3cnc4[nH]ccc4c32)CC1 [Example 385, 3-{4-[2-(Tetrahydro-pyran-4-yl)-6H-1,3,5,6-tetraaza-as-indacen-1-yl]-piperidin-1-yl}-propionitrile] | 51.3 | 68.5 | 15.5 | 1290
23 | NC1CCC(n2cnc3cnc4[nH]ccc4c32)C1 (racemic) [Example 294, 3-(6H-1,3,5,6-Tetraaza-as-indacen-1-yl)-cyclopentylamine] | 37.6 | 176 | 151 | 380
24 | CC1CN(S(C)(=O)=O)CCC1n1cnc2cnc3[nH]ccc3c21 (racemic) [Example 344, 1-(1-Methanesulfonyl-3-methyl-piperidin-4-yl)-1,6-dihydro-1,3,5,6-tetraaza-as-indacene] | 15.7 | 30.3 | 80.4 | 329
25 | C[C@@H](O)c1nc2cnc3[nH]ccc3c2n1[C@H]1CC[C@@H](NCC(F)(F)F)C1 [Example 1004, (R)-1-{1-[(1S,3R)-3-(2,2,2-Trifluoro-ethylamino)-cyclopentyl]-1,6-dihydro-1,3,5,6-tetraaza-as-indacen-2-yl}-ethanol] | 1.69 | 63 | 44.4 | 17
26 | N#CCCC1CCC(n2c(C(O)CO)nc3cnc4[nH]ccc4c32)CC1 (stereo not shown) [Example 1006, 3-{4-[2-(1,2-Dihydroxy-ethyl)-6H-1,3,5,6-tetraaza-as-indacen-1-yl]-cyclohexyl}-propionitrile] | 0.8 | 4.49 | 11.3 | 3.52
27 | FC(F)c1nc2cnc3[nH]ccc3c2n1C1CCN(Cc2ccccc2)CC1 [Example 299, 1-(1-Benzyl-piperidin-4-yl)-2-difluoromethyl-1,6-dihydro-1,3,5,6-tetraaza-as-indacene] | 2.5 | 4.53 | 4.53 | 127
28 | CC(=O)N[C@H]1CC[C@H](n2cnc3cnc4[nH]ccc4c32)CC1 [Example 106, Trans N-[4-(6H-1,3,5,6-tetraaza-as-indacen-1-yl)-cyclohexyl]acetamide] | 5.5 | 10.8 | 43.6 | 35.6
